Publication PMC6651381 (Molecules, 2019)
Where two headings read alike, the source gives them in different places. Marks after values point to notes of the source that are not given here.

What was measured:
rats [1] = test system: rats; parameters: method as in PMID 25446027; conditions: p.o., in mg/kg; cited from earlier work
mice [2] = conditions: cited from earlier work
mice [3] = test system: mice; parameters: method as in PMID 25446027; conditions: i.p., dose protecting 50% of animals against seizures, in mg/kg; cited from earlier work
Vibrio harveyi BB7XM [4] = assay: Vibrio harveyi mutagenicity test, BB7XM; type: cell-based; conditions: 40 ng/mL; for MI (mutagenic index): positive when MI ≥ 2
Description: (§1) In the experiment, overnight cultures of bacterial strains BB7, BB7M, BB7X, and BB7XM were used. Each culture was centrifuged and 10 µL of V. harveyi pellets was placed in 20 mL of BOSS medium. The culture was cultivated at 30 °C until the optical density reached 0.1 at 600 nm (OD600). Then, 10 µL of test compound solution (final concentration of 40 ng/mL) was added to the bacterial culture and incubated. Incubation was continued until OD600 reached 0.3–0.4. Next, 5 × 10^6 bacterial cells were spread onto BOSS agar plates with neomycin. The plates were incubated at 30 °C for 48 h and the number of neomycin-resistant colonies was counted. […] All the experiments were analyzed in three independent repetitions. Finally, MI was calculated.

Vibrio harveyi BB7M [5] = type: cell-based; conditions: 40 ng/mL; for MI (mutagenic index): positive when MI ≥ 2
Description: as §1

Vibrio harveyi BB7 [6] = type: cell-based; conditions: BB7, 40 ng/mL; for MI (mutagenic index): positive when MI ≥ 2
Description: as §1

Vibrio harveyi BB7X [7] = type: cell-based; conditions: 40 ng/mL; for MI (mutagenic index): positive when MI ≥ 2
Description: as §1

mice [8] = test system: mice; parameters: method as in PMID 25446027; conditions: i.p., printed in the ED50(MES) column; cited from earlier work
[9] = target: recombinant human P-gp membranes (Homo sapiens, UniProt P08183); assay: P-gp ATPase activity assay (P-gp-Glo); conditions: compounds 10–100 µM, verapamil 100 µM; 5 mM Mg ATP, 37 °C, 45 min
Description: The changes in the ATPase activity of P-gp were determined by using the P-gp-Glo TM assay system (Promega). […] When P-gp ATPase activity is inhibited, ATP accumulates and becomes a substrate for luciferase, with a consequent increase in luminescence. The tested compounds at increasing concentration (10–100 µM) were incubated with 5 mM Mg ATP and 25 µg recombinant human P-gp membranes at 37 °C for 45 min. The luminescence signal was started by adding ATP detection buffer. After incubation at room temperature for 25 min, the samples were read in white 96-well plates on a multi-plate reader (BIOTEK).

Vibrio harveyi BB7M [10] = type: cell-based; conditions: for Inhib. (%) of mutagenicity: against NQNO 40 ng/mL; for Number of revertants, Mean ± SD (antimutagenicity): test compound plus NQNO 40 ng/mL, NQNO line = mutagen alone
Description: as §1
(§2) Triplicate plates were set up with each test compound concentration and the entire experiment was repeated twice.
(§3) The inhibition percentage of mutagenicity was calculated as described above in the Ames antimutagenicity assay procedure.

Vibrio harveyi BB7XM [11] = type: cell-based; conditions: for Inhib. (%) of mutagenicity: against NQNO 40 ng/mL; for Number of revertants, Mean ± SD (antimutagenicity): test compound plus NQNO 40 ng/mL, NQNO line = mutagen alone
Description: as §1, §2, §3

Vibrio harveyi BB7 [12] = type: cell-based; conditions: for Inhib. (%) of mutagenicity: against NQNO 40 ng/mL; for Number of revertants, Mean ± SD (antimutagenicity): test compound plus NQNO 40 ng/mL, NQNO line = mutagen alone
Description: as §1, §2, §3

Vibrio harveyi BB7X [13] = type: cell-based; conditions: for Inhib. (%) of mutagenicity: against NQNO 40 ng/mL; for Number of revertants, Mean ± SD (antimutagenicity): test compound plus NQNO 40 ng/mL, NQNO line = mutagen alone
Description: as §1, §2, §3

[14] = test system: Salmonella typhimurium TA100; type: cell-based; conditions: TA100, 40 ng/mL; for MI (mutagenic index): positive when MI ≥ 2
Description: The Ames assay was conducted by the preincubation method using S. typhimurium TA100 strain [60]. Each probe was performed in triplicate; 100 µL of the overnight bacterial culture, 50 µL of the investigated compounds at a concentration of 40 ng/mL, and 500 µL of a buffer solution were preincubated for 30 min at 37 °C and then added to 2 mL of the top agar containing histidine/biotin solution. The resulting mixture was poured onto minimal glucose plates. After 48 h incubation, the revertants were counted manually and the results were expressed as mutagenic index (MI) (MI = the number of revertant colonies induced in the tested sample/the number of spontaneous revertants in the negative control). […] DMSO served as the negative (solvent) control.

[15] = test system: Salmonella typhimurium TA100; type: cell-based; conditions: for Inhib. (%) of mutagenicity: against NQNO 40 ng/mL; for Number of revertants, Mean ± SD (antimutagenicity): test compound plus NQNO 40 ng/mL, NQNO line = mutagen alone
From the text: as §2

rats [16] = test system: rats; parameters: unit not given beside the values; conditions: cited from earlier work
[17] = test system: human glioblastoma astrocytoma cell line U373; assay: MTT viability test on human glioblastoma cells; type: cell-based; conditions: U373, 10, 25, 50 or 100 µM, 24 h; listed as racemic compound
Description: Astrocyte cell line (ATCC, CRL-2541), human glioblastoma astrocytoma cell line U373 (ATCC, HTB17-1055), and human hepatoma HepG2 cells (ATCC, HB-8065) were used in the study. The cells were cultured in standard conditions (37 °C, 5% CO2), in EMEM medium with 2 mM glutamine and 1% non-essential amino acids, all supplemented with 10% FBS and antibiotics (penicillin–streptomycin; 10,000 U/mL; final concentration in culture medium was 1%).
The cells were seeded at a density of 1 × 10^4 in 96-well plates. Following overnight culture, the cells were treated with increasing doses of compounds 1–3 (i.e., 10, 25, 50, or 100 μM) and incubated for 24 h. Next, 10 µL of MTT (3-(4,5-dimethylthiazolyl-2)-2,5-diphenyltetrazolium bromide) reagent (Cayman) was added to each well and after 3 h of incubation (37 °C, 5% CO2) the medium was aspirated, and the formazan produced in the cells appeared as dark crystals at the bottom of the wells. Subsequently, crystal dissolving solution (Cayman) was added to each well and the optical density (OD) was determined at 570 nm on a plate reader (BIOTEK). Doxorubicin (DOX) was used as a positive control. When hepatotoxicity of test compounds was evaluated, the morphology of the cells was also determined using a bright-field inverted microscope (Nikon).

[18] = mice, i.p., dose producing toxicity in 50% of animals
[19] = mice, i.p., value printed in the scMet line

Chain of recombinant human P-gp membranes (P08183 whole entry): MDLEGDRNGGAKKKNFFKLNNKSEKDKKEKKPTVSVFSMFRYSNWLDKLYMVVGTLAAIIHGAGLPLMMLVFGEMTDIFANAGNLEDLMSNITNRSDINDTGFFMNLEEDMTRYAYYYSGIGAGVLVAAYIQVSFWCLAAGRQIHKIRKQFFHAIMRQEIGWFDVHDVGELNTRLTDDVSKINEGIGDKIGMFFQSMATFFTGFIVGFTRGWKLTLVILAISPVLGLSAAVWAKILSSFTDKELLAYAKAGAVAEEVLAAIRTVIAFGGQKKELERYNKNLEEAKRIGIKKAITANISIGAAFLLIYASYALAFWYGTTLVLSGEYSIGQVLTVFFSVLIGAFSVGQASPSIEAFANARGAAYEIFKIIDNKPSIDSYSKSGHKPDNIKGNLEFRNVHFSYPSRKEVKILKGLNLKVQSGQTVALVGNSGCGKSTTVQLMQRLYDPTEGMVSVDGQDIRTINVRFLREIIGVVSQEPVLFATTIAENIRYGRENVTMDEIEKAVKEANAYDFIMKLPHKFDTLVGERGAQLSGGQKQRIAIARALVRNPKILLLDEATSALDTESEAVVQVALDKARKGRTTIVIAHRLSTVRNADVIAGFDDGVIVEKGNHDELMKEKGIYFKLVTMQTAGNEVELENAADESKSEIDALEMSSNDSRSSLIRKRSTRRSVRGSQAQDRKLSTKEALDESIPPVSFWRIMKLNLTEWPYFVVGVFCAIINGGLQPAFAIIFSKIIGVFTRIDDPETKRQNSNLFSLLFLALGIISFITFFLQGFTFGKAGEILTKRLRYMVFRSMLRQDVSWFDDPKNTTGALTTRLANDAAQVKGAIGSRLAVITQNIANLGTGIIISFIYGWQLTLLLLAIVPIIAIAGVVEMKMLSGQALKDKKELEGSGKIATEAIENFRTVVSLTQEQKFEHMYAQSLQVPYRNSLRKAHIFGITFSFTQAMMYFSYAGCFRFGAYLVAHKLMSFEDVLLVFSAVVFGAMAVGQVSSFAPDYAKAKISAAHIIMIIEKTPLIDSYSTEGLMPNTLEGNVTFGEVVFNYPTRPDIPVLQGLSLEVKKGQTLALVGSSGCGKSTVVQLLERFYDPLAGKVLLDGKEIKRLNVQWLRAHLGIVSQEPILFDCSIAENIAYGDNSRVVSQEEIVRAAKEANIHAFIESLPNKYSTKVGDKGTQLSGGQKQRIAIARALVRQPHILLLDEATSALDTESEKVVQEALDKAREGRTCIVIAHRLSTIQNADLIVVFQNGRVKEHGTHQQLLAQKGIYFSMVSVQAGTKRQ

| Structure (SMILES) | ED50(MES) (rats [1]) | ED50(MES) (mice [3]) | Number of revertants, Mean ± SD (Vibrio harveyi BB7XM [4]) | MI (mutagenic index) (Vibrio harveyi BB7XM [4]) | Number of revertants, Mean ± SD (Vibrio harveyi BB7M [5]) | MI (mutagenic index) (Vibrio harveyi BB7M [5]) | Number of revertants, Mean ± SD (Vibrio harveyi BB7 [6]) | MI (mutagenic index) (Vibrio harveyi BB7 [6]) | Number of revertants, Mean ± SD (Vibrio harveyi BB7X [7]) | MI (mutagenic index) (Vibrio harveyi BB7X [7]) | Inhib. (%) of mutagenicity (Vibrio harveyi BB7M [10]) | Number of revertants, Mean ± SD (antimutagenicity) (Vibrio harveyi BB7M [10]) | Inhib. (%) of mutagenicity (Vibrio harveyi BB7XM [11]) | Number of revertants, Mean ± SD (antimutagenicity) (Vibrio harveyi BB7XM [11]) | Inhib. (%) of mutagenicity (Vibrio harveyi BB7 [12]) | Number of revertants, Mean ± SD (antimutagenicity) (Vibrio harveyi BB7 [12]) | Inhib. (%) of mutagenicity (Vibrio harveyi BB7X [13]) | Number of revertants, Mean ± SD (antimutagenicity) (Vibrio harveyi BB7X [13]) | Number of revertants, Mean ± SD [14] | MI (mutagenic index) [14] | further results |
| --- | --- | --- | --- | --- | --- | --- | --- | --- | --- | --- | --- | --- | --- | --- | --- | --- | --- | --- | --- | --- | --- |
| NC(=O)N1c2ccccc2C=Cc2ccccc21 [CBZ, carbamazepine] | 3.57 ^^ | 9.85 ^# |  |  |  |  |  |  |  |  |  |  |  |  |  |  |  |  |  |  | TD50 (mice [2]; mouse, in vivo, ip): 47.8 ^# |
| Cc1cc(OCCN[C@@H]2CCCC[C@H]2O)ccc1Cl [Compound 1] |  | 38.34 ^# | 18 ± 2 | 1.6 | 22 ± 3 | 1.0 | 21 ± 3 | 1.1 | 16 ± 5 | 0.9 | (37) % | 22 ± 2 | (35) % | 16 ± 2 | (32) % | 26 ± 3 | (31) % | 20 ± 4 | 9 ± 4 | 0.6 | ED50 (scMet) (mice [8]): >90.00 ^#scMet; effect on P-gp ATPase activity (luminescence) [9]: more potent; TD50 (mice [2]; [18]): 66.03 ^#; TD50 (mice [2]; [19]): 66.03 ^#scMet; Inhib. (%) of mutagenicity [15]: (27) %; Number of revertants, Mean ± SD (antimutagenicity) [15]: 16 ± 2 |
| Cc1cc(OCCN[C@H]2CCCC[C@@H]2O)ccc1Cl [Compound 2] |  |  | 10 ± 3 | 0.9 | 23 ± 3 | 1.1 | 23 ± 5 | 1.2 | 10 ± 6 | 0.6 | (41) % | 20 ± 4 | (40) % | 14 ± 4 | (38) % | 23 ± 4 | (30) % | 21 ± 3 | 3 ± 1 | 0.2 | Inhib. (%) of mutagenicity [15]: (38) %; Number of revertants, Mean ± SD (antimutagenicity) [15]: 14 ± 3 |
| Cc1cc(OCCNC2CCCCC2O)ccc1Cl (stereo not drawn) [Compound 3] | 99.25 ^^ | 25.05 ^# | 15 ± 4 | 1.4 | 27 ± 4 | 1.7 | 23 ± 3 | 1.4 | 13 ± 4 | 1.0 | (36) % | 22 ± 5 | (57) % | 10 ± 4 | (51) % | 19 ± 3 | (29) % | 21 ± 4 | 6 ± 3 | 0.4 | TD50 (rats [16]; rats, p.o.): >250 ^^; ED50 (scMet) (mice [8]): >150 ^#scMet; TD50 (mice [2]; [18]): 71.04 ^#; TD50 (mice [2]; [19]): 71.04 ^#scMet; cytotoxicity against human glioblastoma cells (MTT viability) [17]: less cytotoxic than the two enantiomers; Inhib. (%) of mutagenicity [15]: (41) %; Number of revertants, Mean ± SD (antimutagenicity) [15]: 13 ± 3 |
| O=C1NC(=O)C(c2ccccc2)(c2ccccc2)N1 [PHT, phenytoin] | 32.2 ^^ | 6.48 ^# |  |  |  |  |  |  |  |  |  |  |  |  |  |  |  |  |  |  | TD50 (rats [16]; rats, p.o.): >500 ^^ |
| CCCC(CCC)C(=O)O [VPA, valproate] | 395 ^^ | 287 ^# |  |  |  |  |  |  |  |  |  |  |  |  |  |  |  |  |  |  | TD50 (rats [16]; rat, in vivo, po): 859 ^^ |
